How the values were obtained:
SH-SY5Y neuronal cells = assay: In vitro anti-apoptosis assay, staurosporine induced apoptosis, Caspase-Glo 3/7; assay type: cell-based, human
mouse SCI model = assay: Mouse spinal cord injury (SCI) model, Basso-Mouse-Score; assay type: in vivo; conditions: i.p. 10 mg/kg, then 20 mg/kg on two days, plus 1 mg/kg daily s.c. over 2 weeks; day 1-35
Procedure: Female mice at 2 months of age were anesthetized using inhalation anesthesia (1% Halothane/30% N20/70% O2). After laminectomy at the vertebral level Th8/9, the spinal cord was dorsally transected to ˜80% with fine iridectomy scissors leaving a ventral tissue bridge intact as previously described (Demjen et al. Nat Med 2004; 10: 389-395). The animals were treated postoperatively with gentamycin (i.p., 1 mg/kg bodyweight) once a day for 7 days. Bladders were emptied manually until restoration of autonomic bladder function. In the treatment experiment, C57BL/6 wild-type mice (n=20) received i.p. piperine during the operation (10 mg/kg bodyweight) and on the two following days (20 mg/kg bodyweight, each time. Further, the mice received a daily dose of 1 mg/kg bodyweight by continuous s.c. application over 2 weeks via an osmotic minipump (Alzet). Control group (sham, n=20) was treated accordingly but received only vehicle (20% Solutol-HS15). Piperine was solved in 20% Solutol-HS15 as described in Example 7. All animal experiments were approved by the ethical authorities. As a measurement for the outcome the Basso-Mouse-Score (BMS) (Basso et al. J Neurotrauma 2006; 23: 635-659) was determined at day 1, 7, 14, 21, 28, and 35 after operation. The BMS scores a value between 0 (no movement of the hind limbs) to 9 (healthy mouse).

adult rats = assay: Neurogenesis in vivo, BrdU/NeuN co-staining of hippocampal slices; set-up: species or system rat; conditions: 6 weeks
Procedure: Male adult rats were divided in three groups. The rats were treated i.p. with 20% Solutol-HS15 (BASF SE) as vehicle (control group, n=11), 1 mg/kg bodyweight piperine (piperine I group, n=14 with total dose of 5 mg/kg piperin), or 10 mg/kg bodyweight piperine (piperine II group, n=13 with total dose of 50 mg/kg) once daily for 5 consecutive days. Piperine was solved in 20% Solutol-HS15 as described in Example 7. Further, all animals received BrdU (i.p. 50 mg/kg bodyweight) twice daily during these initial 5 days. BrdU is stably incorporated by dividing cells and therefore a suitable tool for the labelling of cells that divided within an experimentally defined time-window (i.e. the time during which BrdU was administered, which in the present example corresponds to the time during which Piperine was administered (Bagley et al BMC Neurosci. 2007; 8:92). The animals were sacrificed 6 weeks after the beginning of the treatment. Brains were removed rapidly, fixed with 4% paraformaldehyd and stored in 4% paraformaldehyd for further immunohistochemical analysis. 10 μm slices of the hippocampal area were generated and stained with sheep-anti-BrdU antibodies (Abcam, 1:100) and mouse-anti-NeuN antibodies (Chemicon, 1:500). Subsequently, the slices were stained for fluorescent detection with anti-sheep-biotin plus streptavidin-Cy2 and anti-mouse-Alexa555 (Molecular Probes, Fisher). […]

[1] = system: motoneural cell line NSC-34; assay: Anti-apoptosis assay on motoneural cell line, staurosporine induced apoptosis, Caspase-Glo 3/7; assay type: cell-based; conditions: compound 1 μM in the presence of staurosporine 0.1 μM
Procedure: Instead of the SH-SY5Y cells used in Example 3 and 4, this analysis was performed with motoneural cell line NSC-34. […] Incubation with staurosporine (SP; 0.1 μM) alone served as positive control and incubation with vehicle served as negative control. The degree of apoptosis relative to the staurosporine control is shown in FIG. 4 (vehicle (sham): 6%; staurosporine (SP): 100%; piperine plus staurosporine: 70%; derivative B plus staurosporine: 55%; derivative E plus staurosporine: 75%; derivative G plus staurosporine: 76%; derivative K plus staurosporine: 83%; derivative S plus staurosporine: 77%; derivative U plus staurosporine: 71%).

[2] = cited from earlier work
[3] = oral, approximately 5 to 20 mg daily, human patients; cited from earlier work
[4] = in vivo; cited from earlier work
[5] = cited from earlier work; remark: listed apart in the source
mice = conditions: cited from earlier work
[6] = system: carageenan-induced rat paw edema; conditions: in vivo; cited from earlier work
rat MCAO model = assay: Rat MCAO (filament) model for stroke, infarct volume by TTC staining

O=C(/C=C/C=C/c1ccc2c(c1)OCO2)N1CCCCC1 [Piperine, (E,E)-1-[5-(1,3-benzodioxol-5-yl)-1-oxo-2,4-pentadienyl]piperidine]
degree of apoptosis relative to the staurosporine control (SH-SY5Y neuronal cells; compound 1 μM in the presence of staurosporine 0.1 μM, SH-SY5Y): 66% | reduction of the staurosporine induced apoptosis (SH-SY5Y neuronal cells; piperine 100 μM to 10 μM with staurosporine 0.1 μM, 5 h): significant reduction | apoptotic effect by themselves (SH-SY5Y neuronal cells; without staurosporine): neither piperine nor derivatives thereof exhibited an apoptotic effect by themselves | outcome of experimental SCI (Basso-Mouse-Score) (mouse SCI model): clearly improved the outcome | neurogenesis (NeuN/BrdU-positive cells per slice) compared to the control level (adult rats; 1 mg/kg i.p. once daily for 5 days (total 5 mg/kg)): clearly elevated levels of neurogenesis | neurogenesis (NeuN/BrdU-positive cells per slice) compared to the control level (adult rats; 10 mg/kg i.p. once daily for 5 days (total 50 mg/kg)): clearly elevated levels of neurogenesis | degree of apoptosis relative to the staurosporine control [1]: 70% | maximum concentration in rat brain tissue ([2]; i.v. bolus of 50 mg/kg): about 4 μg/ml | passage of the blood-brain-barrier ([2]; rat, in vivo): passes the intact blood-brain-barrier | tolerability [3]: well tolerated | time of peak blood levels after dosing [4]: 1 to 2 h | solubility in water [5]: essentially insoluble in water | seizure activity induced by L-glutamate, N-methyl-D-aspartate or guanidinosuccinate (mice): did not significantly block seizure activity | clonic convulsions induced by kainate (mice; injected intra-peritoneally): inhibited clonic convulsions | anti-inflammatory activity [6]: significant anti-inflammatory activity | total edema-corrected infarct size (rat MCAO model; 10 mg/kg i.v. 30 min after onset of occlusion, 24 h, mean ± SEM, n=30, p=0.031 vs vehicle): 151±17 mm^3 | edema-corrected infarct volume, subcortical areas (rat MCAO model; 10 mg/kg i.v. 30 min after onset of occlusion, 24 h, mean ± SEM, not statistically significant): 78±6 mm^3 | edema-corrected infarct volume, cortex (rat MCAO model; 10 mg/kg i.v. 30 min after onset of occlusion, 24 h, mean ± SEM, p=0.018 vs vehicle): 73±14 mm^3 | tolerability of the treatment (rat MCAO model; 10 mg/kg i.v., rat): well tolerated
